In patent publication US12649733B2, “3,6-diamino-pyridazin-3-yl derivatives, pharmaceutical compositions containing them and their uses as pro-apoptotic agents” (LES LABORATOIRES SERVIER, priority 2019, dated 2026) one finds Ki and IC50 data, which are given here for 25 compounds.

The Ki is the equilibrium dissociation constant of an inhibitor or competing ligand from its target. For orientation: IC50 means the concentration that inhibits the measured activity by half.

One assay addresses BCLXL (Homo sapiens, UniProt Q07817, V10N/V9A). In words: Fluorescence polarisation assay (PUMA-based probe displacement). Also: 20 nM protein, 10 nM fluorescent probe. Type of assay: binding. Here is the method: Fluorescence polarization measures the rotation of a fluorescing species in solution, the larger the molecule the more polarized the fluorescence emission.
[[…]] (GST UniProtKB® primary accession number P08515 and BCLXL UniProtKB® primary accession number Q07817-1),
resulting in an increase in anisotropy. If a compound is added which competitively binds to the same site as the probe, thereby releasing it, anisotropy decreases due to the increased amount of free probe.
An 11-point serial dilution of each compound was prepared in DMSO, the final buffer conditions were 10 mM 4-(2-hydroxyethyl)-1-piperazineethanesulfonic acid [HEPES], 150 mM NaCl, 0.05% Tween 20, pH 7.4 and 5% DMSO. The final protein concentration in the assay was 20 nM with the fluorescent probe present at 10 nM. The experiments were incubated for 2 hours at 23° C. before fluorescence polarization was measured on a Biotek SynergyNeo plate reader (Excitation 485 nm, emission 525 nm, parallel and perpendicular reads). […] The KI values were determined from the IC50 values according to Cer et al, Nucleic Acids Res, 2009, Jul. 1: 37(WebServer issue): W441-W445.

The next assay deals with H146 cells. In words: H146 cell viability, MTT assay. To be noted: Homo sapiens, NCI-H146, 48 h, 48 h exposure. Type of assay: cell-based. The procedure: (§1) MTT colorimetric assay is based on the mitochondrial reduction of tetrazolium salt by living cells. The viable cell number is proportional to the production of formazan salts, which can be read spectrophotometrically at 540 nm.
(§2) MOLT-4 and H146 cells were purchased from ATCC and cultivated in RPMI 1640 supplemented with 10% heat inactivated fetal bovine serum, penicillin (100 IU/ml), streptomycin (100 μg/ml) and L-glutamine (2 mM). Cells were cultured at 37° C. in a humidified atmosphere containing 5% CO2. Cells were seeded in 96 microwell plates (150 μL per well) and exposed to the compounds for 48 h (3.16 fold serially diluted; 9 concentrations each, triplicates). At the end of incubation time, 15 μL of MTT solution (5 mg/ml) were added per well and the cells were incubated for another 4 h. Then, 100 μL of 10% Sodium Dodecyl Sulfate (SDS)/HCl 10 mM were added per well and the plate was incubated overnight, before measurement of optical density at 540 nm. IC50s were calculated using standard four-parametric curve fitting.

Another assay has as its system MOLT-4 cells. In words: MOLT-4 cell viability, MTT assay. The assay is classed as cell-based. The settings on record: Homo sapiens, MOLT-4, 48 h, 48 h exposure. Here is the method:
as §1, §2

The structures appear in SMILES notation. Where only a bound is given, the exact number is not on record here.

Sequence of BCLXL (Q07817 with tags, fused parts or gaps V9A/V10N): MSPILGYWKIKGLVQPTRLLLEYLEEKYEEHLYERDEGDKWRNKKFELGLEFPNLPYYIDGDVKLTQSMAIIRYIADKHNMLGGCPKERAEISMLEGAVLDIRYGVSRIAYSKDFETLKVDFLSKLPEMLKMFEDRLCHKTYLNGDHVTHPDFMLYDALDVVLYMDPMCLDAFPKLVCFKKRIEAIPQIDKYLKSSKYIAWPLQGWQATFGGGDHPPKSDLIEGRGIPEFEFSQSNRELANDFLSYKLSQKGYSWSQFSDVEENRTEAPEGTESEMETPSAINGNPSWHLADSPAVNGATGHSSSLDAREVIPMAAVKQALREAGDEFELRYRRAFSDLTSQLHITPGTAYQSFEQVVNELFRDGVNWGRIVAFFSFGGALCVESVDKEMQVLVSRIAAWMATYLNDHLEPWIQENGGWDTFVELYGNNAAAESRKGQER

Take `Cc1c(Nc2cccc(C(=O)O)n2)nnc(Nc2nc3ccccc3s2)c1C` [Example 2, 6-({6-[(1,3-Benzothiazol-2-yl)amino]-4,5-dimethylpyridazin-3-yl}amino)pyridine-2-carboxylic acid]: on BCLXL, the Ki is 330 nM. This compound also showed an IC50 in the assay with H146 cells of 12500 nM.
As to `O=C(O)c1csc(Nc2ccc(Nc3nc4ccccc4s3)nn2)n1` [Example 4, 2-({6-[(1,3-Benzothiazol-2-yl)amino]pyridazin-3-yl}amino)-1,3-thiazole-4-carboxylic acid], at BCLXL, the inhibitory constant (Ki) was 910 nM.
`CC(C)c1cc(Nc2nc(C(=O)O)cs2)nnc1Nc1nc2ccccc2s1` [Example 5, 2-({6-[(1,3-Benzothiazol-2-yl)amino]-5-(propan-2-yl)pyridazin-3-yl}amino)-1,3-thiazole-4-carboxylic acid]: the Ki at BCLXL came to 180 nM. This compound came in with an IC50 in the assay with H146 cells of 8210 nM.
Taken in the same sequence, the figures for `CC(C)c1cc(Nc2nc3ccccc3s2)nnc1Nc1nc(C(=O)O)cs1` [Example 6, 2-({6-[(1,3-Benzothiazol-2-yl)amino]-4-(propan-2-yl)pyridazin-3-yl}amino)-1,3-thiazole-4-carboxylic acid] were 490 nM and above 44900 nM.
In the same order, the values of `Cc1c(Nc2nc3ccccc3s2)nnc(Nc2nc(C(=O)O)cs2)c1C(C)C` [Example 8, 2-({6-[(1,3-Benzothiazol-2-yl)amino]-5-methyl-4-(propan-2-yl)pyridazin-3-yl}amino)-1,3-thiazole-4-carboxylic acid] are 87 nM and 10500 nM.
Turning to `Cc1c(Nc2nc(C(=O)O)cs2)nnc(Nc2nc3ccccc3s2)c1C(C)C` [Example 10, 2-({6-[(1,3-Benzothiazol-2-yl)amino]-4-methyl-5-(propan-2-yl)pyridazin-3-yl}amino)-1,3-thiazole-4-carboxylic add], the inhibition constant Ki at BCLXL stood at 410 nM. In the assay on H146 cells, the IC50 was found to be 8310 nM.
Turning to `Cc1cc(Nc2nc3ccccc3s2)nnc1Nc1nc(C(=O)O)cs1` [Example 11, 2-({6-[(1,3-Benzothiazol-2-yl)amino]-4-methylpyridazin-3-yl}amino)-1,3-thiazole-4-carboxylic acid], the Ki on BCLXL came out at 600 nM.
The same measure, in the same setting: to `COCCCC1(Cn2ncc(-c3sc(N(C)c4cc(C)c(Nc5nc6ccccc6s5)nn4)nc3C(=O)O)c2C)CCCCCCC1` [Example 43, 2-({6-[(1,3-Benzothiazol-2-yl)amino]-5-methylpyridazin-3-yl}(methyl)amino)-5-(1-{[1-(3-methoxypropyl)cyclooctyl]methyl}-5-methyl-1H-pyrazol-4-yl)-1,3-thiazole-4-carboxylic acid] belongs 19 nM; to `Cc1c(Nc2nc(C(=O)O)cs2)nnc(Nc2nc3c(C)cccc3s2)c1C` [Example 48, 2-[[4,5-dimethyl-6-[(4-methyl-1,3-benzothiazol-2-yl)amino]pyridazin-3-yl]amino]thiazole-4-carboxylic acid], 1900 nM; to `Cc1c(Nc2nc(C(=O)O)cs2)nnc(Nc2nc3c(F)cccc3s2)c1C` [Example 55, 2-[[6-[(4-Fluoro-1,3-benzothiazol-2-yl)amino]-4,5-dimethyl-pyridazin-3-yl]amino]thiazole-4-carboxylic acid], 82 nM.
The same measure, in the same setting: the value for `Cc1cc(N(C)c2nc(C(=O)O)c(N3CC(O)C3)s2)nnc1Nc1nc2ccccc2s1` [Example 72, 2-({6-[(1,3-Benzothiazol-2-yl)amino]-5-methylpyridazin-3-yl}(methyl)amino)-5-(3-hydroxyazetidin-1-yl)-1,3-thiazole-4-carboxylic acid] was 160 nM; that for `Cc1cc(N(C)c2nc(C(=O)O)c(N3CC[C@@H](Oc4ccccc4)C3)s2)nnc1Nc1nc2ccccc2s1` [Example 79, 2-({6-[(1,3-Benzothiazol-2-yl)amino]-5-methylpyridazin-3-yl}(methyl)amino)-5-[(3R)-3-phenoxypyrrolidin-1-yl]-1,3-thiazole-4-carboxylic acid] was 92 nM; that for `Cc1cc(N(C)c2nc(C(=O)O)c(N3CCCCC3)s2)nnc1Nc1nc2ccccc2s1` [Example 80, 2-({6-[(1,3-Benzothiazol-2-yl)amino]-5-methylpyridazin-3-yl}(methyl)amino)-5-(piperidin-1-yl)-1,3-thiazole-4-carboxylic acid] was 80 nM.
Same read-out and setting: to `Cc1cc(N(C)c2nc(C(=O)O)c(N3CCC(Oc4ccccc4)CC3)s2)nnc1Nc1nc2ccccc2s1` [Example 81, 2-({6-[(1,3-Benzothiazol-2-yl)amino]-5-methylpyridazin-3-yl}(methyl)amino)-5-(4-phenoxypiperidin-1-yl)-1,3-thiazole-4-carboxylic acid] belongs 16 nM; to `Cc1cc(N(C)c2nc(C(=O)O)c(C3CCN(C)CC3)s2)nnc1Nc1nc2ccccc2s1` [Example 99, 2-({6-[(1,3-Benzothiazol-2-yl)amino]-5-methylpyridazin-3-yl}(methyl)amino)-5-(1-methylpiperidin-4-yl)-1,3-thiazole-4-carboxylic acid], 2400 nM.
Regarding `Cc1cc(N(CC(O)CO)c2nc(C(=O)O)cs2)nnc1Nc1nc2ccccc2s1` (stereo not shown) [Example 103, 2-[[6-(1,3-Benzothiazol-2-ylamino)-5-methyl-pyridazin-3-yl]-(2,3-dihydroxypropyl)amino]thiazole-4-carboxylic acid], the Ki on BCLXL came out at 14 nM.
On the same count and under the same terms, the value for `Cc1cc(N(CCCC(O)CO)c2nc(C(=O)O)cs2)nnc1Nc1nc2ccccc2s1` (stereo not shown) [Example 104, 2-[[6-(1,3-Benzothiazol-2-ylamino)-5-methyl-pyridazin-3-yl]-(4,5-dihydroxypentyl)amino]thiazole-4-carboxylic acid] was 16 nM; that for `Cc1cc(N(CC(CO)N2CCOCC2)c2nc(C(=O)O)cs2)nnc1Nc1nc2ccccc2s1` (stereo not shown) [Example 107, 2-[[6-(1,3-Benzothiazol-2-ylamino)-5-methyl-pyridazin-3-yl]-(3-hydroxy-2-morpholino-propyl)amino]thiazole-4-carboxylic acid] was 130 nM.
As to `Cc1cc(N(C)c2nc(C(=O)O)c(C3CN(S(C)(=O)=O)C3)s2)nnc1Nc1nc2ccccc2s1` [Example 149, 2-({6-[(1,3-Benzothiazol-2-yl)amino]-5-methylpyridazin-3-yl}(methyl)amino)-5-(1-methanesulfonylazetidin-3-yl)-1,3-thiazole-4-carboxylic acid], at BCLXL, the Ki worked out at 1300 nM.
The same measure, in the same setting: to `Cc1cc(N(C)c2nc(C(=O)O)c(C3CN(CC(C)C)C3)s2)nnc1Nc1nc2ccccc2s1` [Example 156, 2-({6-[(1,3-Benzothiazol-2-yl)amino]-5-methylpyridazin-3-yl}(methyl)amino)-5-[1-(2-methylpropyl)azetidin-3-yl]-1,3-thiazole-4-carboxylic acid] belongs 890 nM.
Still for that read-out and setting: to `Cc1cc(N(C)c2nc(C(=O)O)c(C3CN(C)C3)s2)nnc1Nc1nc2ccccc2s1` [Example 157, 2-({6-[(1,3-Benzothiazol-2-yl)amino]-5-methylpyridazin-3-yl}(methyl)amino)-5-(1-methylazetidin-3-yl)-1,3-thiazole-4-carboxylic acid] belongs 1200 nM.
Same read-out and setting: to `Cc1cc(N(CCCC(=O)O)c2nc(C(=O)O)cs2)nnc1Nc1nc2ccccc2s1` [Example 158, 2-({6-[(1,3-Benzothiazol-2-yl)amino]-5-methylpyridazin-3-yl}(3-carboxypropyl)amino)-1,3-thiazole-4-carboxylic acid] belongs 43 nM.
For the compound `Cc1cc(N(C)c2nc(C(=O)O)c(C3CN(C(=O)NCc4ccccc4)C3)s2)nnc1Nc1nc2ccccc2s1` [Example 159, 2-({6-[(1,3-Benzothiazol-2-yl)amino]-5-methylpyridazin-3-yl}(methyl)amino)-5-[1-(benzylcarbamoyl)azetidin-3-yl]-1,3-thiazole-4-carboxylic acid], the inhibitory constant (Ki) on BCLXL turned out to be 180 nM.
Same read-out and setting: to `CCNC(=O)N1CC(c2sc(N(C)c3cc(C)c(Nc4nc5ccccc5s4)nn3)nc2C(=O)O)C1` [Example 160, 2-({6-[(1,3-Benzothiazol-2-yl)amino]-5-methylpyridazin-3-yl}(methyl)amino)-5-[1-(ethylcarbamoyl)azetidin-3-yl]-1,3-thiazole-4-carboxylic acid] belongs 220 nM.
As to `CNCC#Cc1ccc(OCCCc2sc(N(CCCCC[N+](C)(C)C)c3cc(C)c(Nc4nc5ccccc5s4)nn3)nc2C(=O)O)c(F)c1` [Example 219, 2-[[6-(1,3-Benzothiazol-2-ylamino)-5-methyl-pyridazin-3-yl]-[5-(trimethylammonio)pentyl]amino]-5-[3-[2-fluoro-4-[3-(methylamino)prop-1-ynyl]phenoxy]propyl]thiazole-4-carboxylate], the IC50 in the assay with MOLT-4 cells stood at 1270 nM; in the assay on H146 cells, 129 nM.
